The results in this text go back to ChEMBL document CHEMBL3804768, “Structure-Activity Relationship Studies of Mitogen Activated Protein Kinase Interacting Kinase (MNK) 1 and 2 and BCR-ABL1 Inhibitors Targeting Chronic Myeloid Leukemic Cells” (J Med Chem, 2016).

For data set [1], the system named is Mus musculus. The data set is described as follows: Toxicity in NOD-SCID mouse xenografted with human K562 cells over expressing eIF4E assessed as body weight loss at 100 to 200 mg/kg, po qd administered through oral gavage for 14 days. The settings on record: in vivo, 336 h. The data set is classed as organism-based. Background: Xenograft models place foreign cells or tissue in a host animal.

Data set [2] can be described thus: Clearance in CD1 mouse at 10 mg/kg, iv. The data set is classed as ADME, organism-based. The settings on record: in vivo.
Data set [3] can be described thus: Half life in CD1 mouse at 10 mg/kg, iv. The data set is classed as ADME, organism-based. The conditions noted are these: in vivo.
The test system of data set [4] is Mus musculus. The data set is described as follows: Toxicity in NOD-SCID mouse xenografted with human K562 cells over expressing eIF4E assessed as body weight loss at 100 mg/kg, po qd administered through oral gavage for 14 days. The data set is classed as organism-based. The conditions noted are these: in vivo, 336 h.

Turning to `CCN1CCN(Cc2ccc(NC(=O)CNc3ccc(-c4ccc(NC(=O)C5CC5)nc4)cc3)cc2C(F)(F)F)CC1`, the Activity entry in the data set on Mus musculus [1] was “Non-toxic”.
On to `CN1CCN(Cc2ccc(NC(=O)CNc3ccc(-c4ccc(NC(=O)C5CC5)nc4)cc3F)cc2C(F)(F)F)CC1`, for which the clearance in data set [2] was 50 mL/min/kg. The same compound had a half-life in data set [3] of 2.2 h. In addition, in the data set on Mus musculus [4], the Activity result is recorded as “Non-toxic”.

The term clearance denotes a measure of how efficiently the substance is removed, as volume per time. The half-life is how long it takes for the measured level to halve.
